{"source": "patent US20080260661A1", "about": "“Aminobutadiene-Based Uv Screens” (Fuji Photo Film B.V., priority 2004, published 2008)", "data": [{"test": "Appearance of formulation after application to the transparent substrate", "type": "physicochemical", "conditions": "not given", "values": [{"smiles": "CCCCCCCCCCOC(=O)/C(=C/C=C/N(C)C)C(C)=O", "note": "[Structure 1.12r]", "Appearance (colour) of formulation": "had a colourless appearance after application to the transparent substrate, except for structure 1.12r"}]}, {"test": "Absorption maximum of the structures", "type": "physicochemical", "conditions": "Table 1; measured in methanol, or if not soluble in methanol, in ethanol", "experimental": "(§1) Absorption maxima of the structures in Tables 1 to 3 are measured in methanol, or if not soluble in methanol, in ethanol.", "units": {"Absorption maximum": "nm"}, "values": [{"smiles": "CCCCCCN(/C=C/C=C(/C(=O)OCC)S(=O)(=O)c1ccccc1)CCCCCC", "note": "[Structure 1.1i]", "Absorption maximum": 373}, {"smiles": "CCCCN(/C=C/C=C(\\C(=O)OC)S(=O)(=O)c1ccc(C(C)(C)C)cc1)CCCC", "note": "[Structure 1.2i]", "Absorption maximum": 373}, {"smiles": "CCCCC(CC)COC(=O)C(=C/C=C/N(C)C)C(=O)OCC(CC)CCCC", "note": "(stereo not drawn) [Structure 1.3i]", "Absorption maximum": 374}, {"smiles": "CCCCCCN(/C=C/C=C(\\C(=O)OCCOc1ccc(C(C)(C)CC)cc1C(C)(C)CC)S(=O)(=O)c1ccc(C)cc1)CCCCCC", "note": "[Structure 1.4i]", "Absorption maximum": 374}, {"smiles": "CCCCCCN(/C=C/C=C(C#N)C#N)CCCCCC", "note": "[Structure 1.5i]", "Absorption maximum": 378}, {"smiles": "CCCCN(/C=C/C=C1C(=O)CC(C)(C)CC1=O)CCCC", "note": "[Structure 1.6r]", "Absorption maximum": 389}, {"smiles": "CCCCN(/C=C/C=C(\\C(C)=O)S(=O)(=O)c1ccc(C)cc1)CCCC", "note": "[Structure 1.7r]", "Absorption maximum": 385}, {"smiles": "CCCCCCN(/C=C/C=C(\\C(C)=O)S(=O)(=O)c1ccccc1)CCCCCC", "note": "[Structure 1.8r]", "Absorption maximum": 385}, {"smiles": "CCCCCCN(/C=C/C=C1C(=O)N(C)N(C)C1=O)CCCCCC", "note": "[Structure 1.9r]", "Absorption maximum": 387}, {"smiles": "CCCCCCN(/C=C/C=C1C(=O)N(C)C(=O)N(C)C1=O)CCCCCC", "note": "[Structure 1.10r]", "Absorption maximum": 388}, {"smiles": "CCCCCCCCCCOC(=O)/C(=C/C=C/N(C)C)C(C)=O", "note": "[Structure 1.12r]", "Absorption maximum": 394}, {"smiles": "CCCCCCN(/C=C/C=C(C(C)=O)C(C)=O)CCCCCC", "note": "[Structure 1.13r]", "Absorption maximum": 395}]}, {"test": "Absorption maximum of the structures", "type": "physicochemical", "conditions": "Table 2; measured in methanol, or if not soluble in methanol, in ethanol", "experimental": "as §1", "units": {"Absorption maximum": "nm"}, "values": [{"smiles": "CCCCCCCCCCOC(=O)/C(=C\\C=C\\N1CCCCC1)S(=O)(=O)c1ccccc1", "note": "[Structure 2.1i]", "Absorption maximum": 375}, {"smiles": "CC(=O)/C(=C\\C=C\\N1CCOCC1)S(=O)(=O)c1ccccc1", "note": "[Structure 2.2r]", "Absorption maximum": 383}, {"smiles": "CCCCC(CC)COC(=O)C(=CC=CN1CCCCC1)C(C)=O", "note": "(stereo not drawn) [Structure 2.3r]", "Absorption maximum": 395}]}, {"test": "Absorption maximum of the structures", "type": "physicochemical", "conditions": "Table 3; measured in methanol, or if not soluble in methanol, in ethanol", "experimental": "as §1", "units": {"Absorption maximum": "nm"}, "values": [{"smiles": "Cc1ccc(S(=O)(=O)/C(C#N)=C\\C=C2\\OCC(C)(C)N2C)cc1", "note": "[Structure 3.1i]", "Absorption maximum": 361}, {"smiles": "CCCCCCOC(=O)/C(=C/C=C1/OCC(C)(C)N1C)S(=O)(=O)c1ccccc1", "note": "[Structure 3.2i]", "Absorption maximum": 362}, {"smiles": "CCCCCCCCCCCCN1/C(=C\\C=C(C#N)C#N)OCC1(C)C", "note": "[Structure 3.3i]", "Absorption maximum": 372}, {"smiles": "CCCCCCCCCCN1/C(=C\\C=C(\\C(C)=O)S(=O)(=O)c2ccccc2)OCC1(C)C", "note": "[Structure 3.4i]", "Absorption maximum": 373}, {"smiles": "CCCCCCCCCCCCOC(=O)/C(C#N)=C/C=C1/OCC(C)(C)N1C", "note": "[Structure 3.5i]", "Absorption maximum": 374}, {"smiles": "CCCCCCCCCCN1CCC/C1=C/C=C(/C(=O)OCC)S(=O)(=O)c1ccc(OC)cc1", "note": "[Structure 3.6i]", "Absorption maximum": 375}, {"smiles": "CCCCCCCCCCN1CCC/C1=C/C=C(/C(C)=O)S(=O)(=O)c1ccccc1", "note": "[Structure 3.7r]", "Absorption maximum": 392}, {"smiles": "CCCCCCCCCCN1/C(=C\\C=C(\\C(=O)OCCCCCC)S(=O)(=O)c2ccc(C)cc2)SCC1C", "note": "(stereo not drawn) [Structure 3.8r]", "Absorption maximum": 392}]}]}
